Paper PMC9898036, “VIP152 is a selective CDK9 inhibitor with pre-clinical in vitro and in vivo efficacy in chronic lymphocytic leukemia” (Leukemia, 2022)

Columns and labels:
TBK1 = TBK1 (Homo sapiens, UniProt Q9UHD2); test: KINOMEscan: TBK1; type: binding; settings: 100 nM, read-out: Percent Control
TRPM6 = TRPM6 (Homo sapiens, UniProt Q9BX84); test: KINOMEscan: TRPM6; type: binding; settings: 100 nM, read-out: Percent Control
CSNK1D = CSNK1D (Homo sapiens, UniProt P48730); test: KINOMEscan: CSNK1D; type: binding; settings: 1000 nM, read-out: Percent Control
TLK1 = TLK1 (Homo sapiens, UniProt Q9UKI8); test: KINOMEscan: TLK1; type: binding; settings: 100 nM, read-out: Percent Control
CDK4-cyclinD1 = CDK4-cyclinD1 (Homo sapiens, UniProt P11802); test: KINOMEscan: CDK4-cyclinD1; type: binding; settings: 1000 nM, read-out: Percent Control
CSNK2A2 = CSNK2A2 (Homo sapiens, UniProt P19784); test: KINOMEscan: CSNK2A2; type: binding; settings: 1000 nM, read-out: Percent Control
RET(M918T) = RET(M918T) (Homo sapiens, UniProt P07949, M918T); test: KINOMEscan: RET(M918T); type: binding; settings: 100 nM, read-out: Percent Control
EGFR(S752-I759del) = EGFR(S752-I759del) (Homo sapiens, UniProt P00533, DEL752-759); test: KINOMEscan: EGFR(S752-I759del); type: binding; settings: 1000 nM, read-out: Percent Control
FLT3(D835H) = FLT3(D835H) (Homo sapiens, UniProt P36888, D835H); test: KINOMEscan: FLT3(D835H); type: binding; settings: 1000 nM, read-out: Percent Control
KIT(D816H) = KIT(D816H) (Homo sapiens, UniProt P10721, D816H); test: KINOMEscan: KIT(D816H); type: binding; settings: 1000 nM, read-out: Percent Control
Muscarinic M2 = Muscarinic M2 (Homo sapiens, UniProt P08172); test: Eurofins Diversity Panel; type: binding; settings: hum, Conc. 10 μM
MAP3K15 = MAP3K15 (Homo sapiens, UniProt Q6ZN16); test: KINOMEscan: MAP3K15; type: binding; settings: 1000 nM, read-out: Percent Control
Muscarinic M3 = Muscarinic M3 (Homo sapiens, UniProt P20309); test: Eurofins Diversity Panel; type: binding; settings: hum, Conc. 10 μM
BRK = BRK (Homo sapiens, UniProt Q13882); test: KINOMEscan: BRK; type: binding; settings: 1000 nM, read-out: Percent Control
BMPR1B = BMPR1B (Homo sapiens, UniProt O00238); test: KINOMEscan: BMPR1B; type: binding; settings: 1000 nM, read-out: Percent Control
[1] = molecular target: T1, CDK9 in complex with Cyclin K (Homo sapiens, UniProt P50750); test: NanoBRET target engagement assay (HEK293); type: cell-based
T1 construct: host or cells: HEK293

CAMK1D = CAMK1D (Homo sapiens, UniProt Q8IU85); test: KINOMEscan: CAMK1D; type: binding; settings: 1000 nM, read-out: Percent Control
ERK8 = ERK8 (Homo sapiens, UniProt Q8TD08); test: KINOMEscan: ERK8; type: binding; settings: 1000 nM, read-out: Percent Control
Histamine H2 = Histamine H2 (Homo sapiens, UniProt P25021); test: Eurofins Diversity Panel; type: binding; settings: hum, Conc. 10 μM
GAK = GAK (Homo sapiens, UniProt O14976); test: KINOMEscan: GAK; type: binding; settings: 1000 nM, read-out: Percent Control
OSU-CLL [2] = test: MTS proliferation assay; type: cell-based; settings: Homo sapiens, 24, 48, and 72 h
BMX = BMX (Homo sapiens, UniProt P51813); test: KINOMEscan: BMX; type: binding; settings: 1000 nM, read-out: Percent Control
YES = YES (Homo sapiens, UniProt P07947); test: KINOMEscan: YES; type: binding; settings: 100 nM, read-out: Percent Control
EPHB4 = EPHB4 (Homo sapiens, UniProt P54760); test: KINOMEscan: EPHB4; type: binding; settings: 1000 nM, read-out: Percent Control
MST3 = MST3 (Homo sapiens, UniProt Q9Y6E0); test: KINOMEscan: MST3; type: binding; settings: 1000 nM, read-out: Percent Control
OSU-CLL [3] = test: Annexin V/propidium iodide flow cytometry; settings: compared with HG-3 and MEC-1; 24, 48, 72 h
Procedure: HG-3, MEC-1, and OSU-CLL were cultured for 24, 48, and 72 h with VIP152 or DMSO.
MTS Proliferation Studies, Annexin V/PI Flow Cytometry
For apoptosis assays of primary CLL, cells were acquired under an institutional reviewer board-approved protocol with informed consent. Leukemia cells were isolated from whole blood utilizing RosetteSep Human B Cell Enrichment Cocktail ([sequence]). Stromal
coculture was done by plating HS-5 stromal cells (50% confluent) in a 6-well plate 24 hours before the addition of CLL cells. CLL cells were added to the plate with VIP152 and allowed to incubate for four hours upon which the cells were centrifuged and replated using 50% HS-5 conditioned media. Apoptosis was measured utilizing FITC-conjugated Annexin-V and Propidium Iodide (Leinco) on a Beckmann-Coulter Cytoflex. Primary samples were excluded from analysis if the viability of the DMSO group was <40% as defined by Annexin-V/Propdium Iodide-/- cells. Single-color controls were utilized for compensation using pooled primary cell sample heated for

MARK2 = MARK2 (Homo sapiens, UniProt Q7KZI7); test: KINOMEscan: MARK2; type: binding; settings: 1000 nM, read-out: Percent Control
LRRK2(G2019S) = LRRK2(G2019S) (Homo sapiens, UniProt Q5S007, G2019S); test: KINOMEscan: LRRK2(G2019S); type: binding; settings: 1000 nM, read-out: Percent Control
SRPK3 = SRPK3 (Homo sapiens, UniProt Q9UPE1); test: KINOMEscan: SRPK3; type: binding; settings: 100 nM, read-out: Percent Control
ASK1 = ASK1 (Homo sapiens, UniProt Q99683); test: KINOMEscan: ASK1; type: binding; settings: 1000 nM, read-out: Percent Control
ASK1, sequence (Q99683 whole entry): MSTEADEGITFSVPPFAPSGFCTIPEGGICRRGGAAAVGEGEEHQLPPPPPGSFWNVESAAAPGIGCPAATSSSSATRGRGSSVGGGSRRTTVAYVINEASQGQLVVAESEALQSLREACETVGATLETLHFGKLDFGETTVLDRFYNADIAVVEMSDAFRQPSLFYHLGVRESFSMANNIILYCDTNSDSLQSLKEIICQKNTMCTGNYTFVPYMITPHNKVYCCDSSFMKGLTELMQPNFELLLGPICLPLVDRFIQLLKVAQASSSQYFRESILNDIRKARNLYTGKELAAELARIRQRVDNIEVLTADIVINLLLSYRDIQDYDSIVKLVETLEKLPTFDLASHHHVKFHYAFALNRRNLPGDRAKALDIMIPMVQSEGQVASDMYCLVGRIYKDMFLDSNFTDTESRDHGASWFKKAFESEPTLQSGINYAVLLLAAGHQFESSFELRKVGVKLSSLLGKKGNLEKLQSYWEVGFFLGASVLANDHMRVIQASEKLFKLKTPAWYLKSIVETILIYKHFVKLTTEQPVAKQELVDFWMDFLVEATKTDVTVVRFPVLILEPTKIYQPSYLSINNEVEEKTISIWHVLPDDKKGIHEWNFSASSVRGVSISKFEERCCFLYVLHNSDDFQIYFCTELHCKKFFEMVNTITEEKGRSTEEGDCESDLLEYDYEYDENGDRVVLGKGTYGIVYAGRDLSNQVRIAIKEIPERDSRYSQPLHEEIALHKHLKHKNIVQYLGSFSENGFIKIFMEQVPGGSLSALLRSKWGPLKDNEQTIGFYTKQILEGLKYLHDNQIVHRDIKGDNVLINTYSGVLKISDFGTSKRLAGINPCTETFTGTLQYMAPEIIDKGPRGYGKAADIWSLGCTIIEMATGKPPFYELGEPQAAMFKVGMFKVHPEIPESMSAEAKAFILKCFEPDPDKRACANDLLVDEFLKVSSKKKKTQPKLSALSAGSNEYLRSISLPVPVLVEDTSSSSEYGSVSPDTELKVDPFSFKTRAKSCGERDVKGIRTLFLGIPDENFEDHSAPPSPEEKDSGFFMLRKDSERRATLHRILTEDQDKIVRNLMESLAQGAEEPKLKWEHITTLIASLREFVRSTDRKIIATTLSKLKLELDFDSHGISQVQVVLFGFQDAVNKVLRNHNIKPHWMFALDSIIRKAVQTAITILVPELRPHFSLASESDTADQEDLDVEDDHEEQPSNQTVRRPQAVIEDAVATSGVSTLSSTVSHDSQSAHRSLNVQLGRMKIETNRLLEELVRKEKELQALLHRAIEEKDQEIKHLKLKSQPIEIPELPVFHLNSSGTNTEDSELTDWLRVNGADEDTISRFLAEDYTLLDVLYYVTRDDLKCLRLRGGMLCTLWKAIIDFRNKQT

SRPK3, sequence (Q9UPE1 whole entry): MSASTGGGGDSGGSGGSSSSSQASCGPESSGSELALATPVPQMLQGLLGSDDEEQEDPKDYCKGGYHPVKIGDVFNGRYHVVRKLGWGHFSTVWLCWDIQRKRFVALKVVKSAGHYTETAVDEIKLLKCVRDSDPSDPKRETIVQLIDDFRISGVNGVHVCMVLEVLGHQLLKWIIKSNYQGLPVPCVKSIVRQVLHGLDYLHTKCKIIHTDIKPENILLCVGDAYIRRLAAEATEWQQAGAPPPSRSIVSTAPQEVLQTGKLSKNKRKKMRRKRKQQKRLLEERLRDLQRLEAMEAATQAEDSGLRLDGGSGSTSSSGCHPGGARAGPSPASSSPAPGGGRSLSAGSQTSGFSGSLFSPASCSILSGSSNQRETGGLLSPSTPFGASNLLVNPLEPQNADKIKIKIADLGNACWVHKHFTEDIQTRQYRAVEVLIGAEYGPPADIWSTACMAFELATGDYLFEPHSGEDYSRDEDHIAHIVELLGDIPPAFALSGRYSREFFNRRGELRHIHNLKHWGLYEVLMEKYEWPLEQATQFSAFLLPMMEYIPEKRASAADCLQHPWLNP
Muscarinic M2, sequence (P08172 whole entry): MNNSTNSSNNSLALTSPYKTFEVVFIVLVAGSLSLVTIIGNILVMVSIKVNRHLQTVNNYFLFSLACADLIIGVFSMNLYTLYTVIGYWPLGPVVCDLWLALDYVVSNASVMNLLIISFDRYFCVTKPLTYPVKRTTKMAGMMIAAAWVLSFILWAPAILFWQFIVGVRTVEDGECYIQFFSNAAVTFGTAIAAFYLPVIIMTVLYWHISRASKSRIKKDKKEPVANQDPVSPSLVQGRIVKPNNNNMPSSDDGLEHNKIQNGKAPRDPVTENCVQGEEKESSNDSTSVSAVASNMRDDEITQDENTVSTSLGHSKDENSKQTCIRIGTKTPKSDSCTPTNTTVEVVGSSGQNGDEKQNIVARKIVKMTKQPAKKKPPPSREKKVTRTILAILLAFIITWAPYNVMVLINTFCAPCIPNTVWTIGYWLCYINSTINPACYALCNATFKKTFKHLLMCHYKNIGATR
TRPM6, sequence (Q9BX84 whole entry): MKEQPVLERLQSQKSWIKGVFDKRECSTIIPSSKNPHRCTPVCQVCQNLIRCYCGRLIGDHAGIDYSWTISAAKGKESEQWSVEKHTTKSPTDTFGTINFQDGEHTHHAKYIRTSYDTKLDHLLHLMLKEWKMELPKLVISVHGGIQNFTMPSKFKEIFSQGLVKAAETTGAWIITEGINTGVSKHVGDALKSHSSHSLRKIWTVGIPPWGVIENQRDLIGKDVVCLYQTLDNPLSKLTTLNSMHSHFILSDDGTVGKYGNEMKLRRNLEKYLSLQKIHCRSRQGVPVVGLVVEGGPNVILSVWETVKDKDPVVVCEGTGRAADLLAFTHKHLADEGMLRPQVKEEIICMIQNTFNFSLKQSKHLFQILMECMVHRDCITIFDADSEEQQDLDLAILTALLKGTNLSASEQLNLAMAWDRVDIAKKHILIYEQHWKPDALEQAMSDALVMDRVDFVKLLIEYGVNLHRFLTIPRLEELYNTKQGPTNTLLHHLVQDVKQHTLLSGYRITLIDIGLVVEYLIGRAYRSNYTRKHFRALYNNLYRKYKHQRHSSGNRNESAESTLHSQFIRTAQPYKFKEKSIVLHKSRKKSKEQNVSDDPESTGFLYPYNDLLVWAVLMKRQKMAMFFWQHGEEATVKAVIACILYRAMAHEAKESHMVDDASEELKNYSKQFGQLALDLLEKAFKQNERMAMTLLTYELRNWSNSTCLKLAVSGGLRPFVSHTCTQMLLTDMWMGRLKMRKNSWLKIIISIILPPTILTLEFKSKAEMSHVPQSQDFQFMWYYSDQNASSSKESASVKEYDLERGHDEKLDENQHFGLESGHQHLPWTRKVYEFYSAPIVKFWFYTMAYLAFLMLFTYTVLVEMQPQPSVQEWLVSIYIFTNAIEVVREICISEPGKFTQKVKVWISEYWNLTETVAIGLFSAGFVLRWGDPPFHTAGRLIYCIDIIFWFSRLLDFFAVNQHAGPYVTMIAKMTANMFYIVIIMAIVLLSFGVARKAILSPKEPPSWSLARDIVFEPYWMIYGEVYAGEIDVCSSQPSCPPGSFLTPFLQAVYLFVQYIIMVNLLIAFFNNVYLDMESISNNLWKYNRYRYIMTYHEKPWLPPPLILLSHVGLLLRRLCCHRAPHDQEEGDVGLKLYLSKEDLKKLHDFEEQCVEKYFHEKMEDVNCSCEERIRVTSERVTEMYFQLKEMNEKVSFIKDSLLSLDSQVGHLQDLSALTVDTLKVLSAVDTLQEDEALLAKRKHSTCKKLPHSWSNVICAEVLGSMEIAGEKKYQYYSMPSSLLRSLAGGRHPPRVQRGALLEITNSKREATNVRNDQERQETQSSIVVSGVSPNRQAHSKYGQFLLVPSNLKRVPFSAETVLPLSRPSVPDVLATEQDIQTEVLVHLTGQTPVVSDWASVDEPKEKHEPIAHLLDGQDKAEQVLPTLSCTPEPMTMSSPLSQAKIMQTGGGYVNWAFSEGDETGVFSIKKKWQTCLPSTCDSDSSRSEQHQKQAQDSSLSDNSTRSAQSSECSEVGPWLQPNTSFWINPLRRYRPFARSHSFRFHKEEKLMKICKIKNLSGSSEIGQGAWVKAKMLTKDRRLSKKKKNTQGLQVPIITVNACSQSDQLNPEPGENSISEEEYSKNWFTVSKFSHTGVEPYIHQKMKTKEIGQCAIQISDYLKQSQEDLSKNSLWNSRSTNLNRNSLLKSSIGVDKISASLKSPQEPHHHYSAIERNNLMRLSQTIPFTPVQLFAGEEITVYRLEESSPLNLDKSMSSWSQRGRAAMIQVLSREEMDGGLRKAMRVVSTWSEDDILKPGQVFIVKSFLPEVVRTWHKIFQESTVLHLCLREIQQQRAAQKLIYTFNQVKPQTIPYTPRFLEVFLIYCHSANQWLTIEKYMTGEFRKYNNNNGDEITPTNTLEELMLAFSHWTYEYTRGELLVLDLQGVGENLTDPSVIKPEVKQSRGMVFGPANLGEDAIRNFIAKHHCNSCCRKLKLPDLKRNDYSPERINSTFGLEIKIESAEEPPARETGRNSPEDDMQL
ERK8, sequence (Q8TD08 whole entry): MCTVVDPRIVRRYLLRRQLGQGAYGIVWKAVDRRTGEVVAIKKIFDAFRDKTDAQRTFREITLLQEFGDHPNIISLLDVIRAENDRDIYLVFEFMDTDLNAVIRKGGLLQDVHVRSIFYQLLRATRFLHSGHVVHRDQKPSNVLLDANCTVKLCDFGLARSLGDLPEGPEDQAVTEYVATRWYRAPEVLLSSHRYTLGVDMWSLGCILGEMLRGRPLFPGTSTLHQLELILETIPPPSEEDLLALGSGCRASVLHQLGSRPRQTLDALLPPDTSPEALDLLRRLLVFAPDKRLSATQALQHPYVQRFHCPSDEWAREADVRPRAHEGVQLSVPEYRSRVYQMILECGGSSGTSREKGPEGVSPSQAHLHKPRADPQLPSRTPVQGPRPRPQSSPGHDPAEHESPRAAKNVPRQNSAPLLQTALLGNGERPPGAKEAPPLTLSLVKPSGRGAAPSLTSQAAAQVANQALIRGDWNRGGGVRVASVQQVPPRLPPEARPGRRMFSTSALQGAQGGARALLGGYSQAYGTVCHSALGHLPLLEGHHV

COc1cc(F)ccc1-c1cc(Nc2cc(CS(C)(=N)=O)ccn2)ncc1F (stereo not drawn) [VIP152]
remaining binding at 0.1 µM (TBK1): 62% | remaining binding at 0.1 µM (TRPM6): 100% | remaining binding at 1 µM (CSNK1D): 94% | remaining binding at 0.1 µM (TLK1): 98% | remaining binding at 1 µM (CDK4-cyclinD1): 7.8% | remaining binding at 1 µM (CSNK2A2): 69% | remaining binding at 0.1 µM (RET(M918T)): 100% | remaining binding at 1 µM (EGFR(S752-I759del)): 97% | remaining binding at 1 µM (FLT3(D835H)): 57% | remaining binding at 1 µM (KIT(D816H)): 59% | inhibition at 10 µM (Muscarinic M2): -5% | remaining binding at 1 µM (MAP3K15): 93% | inhibition at 10 µM (Muscarinic M3): 3% | remaining binding at 1 µM (BRK): 79% | remaining binding at 1 µM (BMPR1B): 46% | potency versus the other inhibitors [1]: higher potency | remaining binding at 1 µM (CAMK1D): 99% | remaining binding at 1 µM (ERK8): 58% | inhibition at 10 µM (Histamine H2): 23% | remaining binding at 1 µM (GAK): 82% | IC50 (OSU-CLL [2]): ~100 nM | remaining binding at 1 µM (BMX): 3.8% | remaining binding at 0.1 µM (YES): 100% | remaining binding at 1 µM (EPHB4): 100% | remaining binding at 1 µM (MST3): 94% | sensitivity to induction of apoptosis (OSU-CLL [3]): highest sensitivity to induction of apoptosis | remaining binding at 1 µM (MARK2): 81% | remaining binding at 1 µM (LRRK2(G2019S)): 86% | remaining binding at 0.1 µM (SRPK3): 100% | remaining binding at 1 µM (ASK1): 97%
